# Data reported in US20220023289A1, “Application Of Pyrroloquinoline Quinone In Preparation Of Medicament Used For Preventing And Treating Acute Altitude Sickness And Acute Altitude Hypoxia Injury” (priority 2018, published 2022).
# Assays:
# [1] = tested on: rats exposed to acute altitude hypoxia; test: Serum homocysteine in rats exposed to acute altitude hypoxia; assay type: in vivo, Wistar rat; conditions: for Serum homocysteine: 0.11 g/kg
# Description: (§1) Select healthy Wistar rats weight 160-200 g, half female and half male. After feeding for 3 days, these Wistar rats are randomly divided into ten groups according to their body weight, each group has 16±2 rats. The groups are divided as follows: five groups of the hypoxic exposure drug test group, respectively, are given 0.91 mg/kg, 1.83 mg/kg, 3.66 mg/kg, 7.31 mg/kg, and 14.63 mg/kg drugs. […] After continuous intragastric administration for 7 days, the animals in the hypoxic exposure group are simultaneously put into the decompression and hypoxia compound experimental chamber, the hatch is closed, and the pressure is reduced at a speed of 10 m/s. After being raised to an altitude of 6000 m and maintained for 8 hours, the speed in 10 m/s drops is reduced to normal altitude, open the hatch, and then take out the animal, collect blood samples (after standing for 1 hour, the supernatant is centrifuged and stored at −20° C.), and liver tissue samples. Detection indicator includes body weight, serum blood glucose, ATP, lactic acid, endothelin, nitric oxide, SOD, CO, MDA related to oxidative stress, and total protein, albumin, triglycerides, total cholesterol, high-density lipoprotein cholesterol, low-density lipoprotein cholesterol, glutamic pyruvic transaminase, total bilirubin, gluamic oxalacetic transaminase, serum urea nitrogen, creatinine, uric acid, lactate dehydrogenase, creatine kinase, α-hydroxybutyrate dehydrogenase; liver ATP, hepatic glycogen. Except that the formal oxygen control animal group is not put into the decompression and hypoxia compound experimental chamber, other experimental conditions and detection indicators are the same.
# (§2) Measure blood glucose, total protein, albumin, triglycerides, total cholesterol, high-density lipoprotein cholesterol, low-density lipoprotein cholesterol, glutamic-pyruvic transaminase, total bilirubin, glutamic oxalacetic transaminase, serum urea nitrogen, creatinine, uric acid, lactate dehydrogenase, creatine kinase, α-hydroxybutyrate dehydrogenase, blood homocysteine by using an automatic blood biochemical analyzer.
# [2] = tested on: rats exposed to acute altitude hypoxia; test: Myocardial enzyme activity in rats exposed to acute altitude hypoxia; assay type: in vivo, Wistar rat; conditions: for Creatine Kinase / Lactate dehydrogenase / α-hydroxybutyrate dehydrogenase: 0.11 g/kg
# Description: as §1, §2
# [3] = tested on: rats exposed to acute altitude hypoxia; test: Liver ATP and glycogen in rats exposed to acute altitude hypoxia; assay type: in vivo, Wistar rat
# Description: Determination of adenosine triphosphate (ATP): Perform enzyme-linked immunosorbent assay by double-antibody one-step sandwich method. To the coated microwells pre-coated with rat adenosine triphosphate (ATP) capture antibody, add in sequence the specimens, standard, and HRP-labeled detection antibody, and then incubate and wash thoroughly. Use a substrate TMB for color development, TMB is converted into blue under the catalysis of peroxidase and converted into the final yellow color under the action of acid. The color intensity is positively correlated with the rat adenosine triphosphate (ATP) in the sample. […] Determination of liver glycogen (GC): Perform enzyme-linked immunosorbent assay by double-antibody one-step sandwich method. To the coated microwells pre-coated with rat liver glycogen (GC) capture antibody, add in sequence the specimens, standard, and HRP-labeled detection antibody, and then incubate and wash thoroughly. Use a substrate TMB for color development, TMB is converted into blue under the catalysis of peroxidase and converted into the final yellow color under the action of acid. The color intensity is positively correlated with the rat liver glycogen (GC) in the sample.
# [4] = tested on: rats exposed to acute altitude hypoxia; test: Lipid metabolism in rats exposed to acute altitude hypoxia; assay type: in vivo, Wistar rat
# Description: as §1, §2
# [5] = tested on: mice exposed to high altitude hypoxia; test: Exhaustive swimming experiment in mice exposed to high altitude hypoxia (6000 m); assay type: in vivo, Kunming mice
# From the text: Select healthy male Kunming mice weight 18-22 g.
# [6] = tested on: rats exposed to acute altitude hypoxia; test: Endothelial function (serum endothelin-1, nitric oxide) in rats exposed to acute altitude hypoxia; assay type: in vivo, Wistar rat; conditions: for Endothelin-1 / Nitric oxide: 0.11 g/kg
# From the text: This method uses nitrate reductase specificity reduce NO^3− to NO^2−, and then determine the level of its concentration by displaying shades of color. Operate according to the kit instructions, measure the absorbance of each tube at a wavelength of 550 nm, and then calculate the content of nitric oxide of the sample to be tested according to the formula. To the coated microwells pre-coated with rat endothelin (endothelin-1) capture antibody, add in sequence specimens, standards, and HRP-labeled detection antibody, and then incubate and wash thoroughly. Use a substrate TMB for color development. TMB is converted into blue under the catalysis of peroxidase and converted into the final yellow color under the action of acid. The color intensity is positively correlated with the rat endothelin (endothelin-1) in the sample.
# [7] = female rats, hypoxia, 0.11 g/kg
# [8] = female rats, normoxia, 0.11 g/kg
smiles,measurement,setting,value
"CC(=O)Nc1nnc(S(N)(=O)=O)s1 [Acetazolamide, reference compound]",Serum homocysteine,"[1]; female rats, hypoxia",9.54 ± 0.98 µmol/L
same,effect on serum homocysteine,"[1]; female rats, normoxia",no significant effects
same,Serum homocysteine,"[1]; female rats, normoxia",9.33 ± 1.16 µmol/L
same,effect on serum homocysteine,[1]; hypoxia exposed female rats,no significant effects
same,effect on serum homocysteine,[1]; hypoxia exposed male rats,have been not found
same,Serum homocysteine,"[1]; male rats, hypoxia",11.13 ± 1.67 µmol/L
same,Creatine Kinase,"[2]; female rats, hypoxia",503.40 ± 137.62 U/L
same,Lactate dehydrogenase,"[2]; female rats, hypoxia",534.00 ± 179.23 U/L
same,α-hydroxybutyrate dehydrogenase,"[2]; female rats, hypoxia",230.20 ± 75.49 U/L
same,"effect on serum lactic dehydrogenase, creatine kinase, α-hydroxybutyrate dehydrogenase activity","[2]; female rats, normoxia",no significant effects
same,Creatine Kinase,"[2]; female rats, normoxia",697.67 ± 222.15 U/L
same,Lactate dehydrogenase,"[2]; female rats, normoxia",998.67 ± 285.56 U/L
same,α-hydroxybutyrate dehydrogenase,"[2]; female rats, normoxia",430.33 ± 134.10 U/L
same,"effect on serum lactic dehydrogenase, creatine kinase, α-hydroxybutyrate dehydrogenase activity",[2]; hypoxia exposed female rats,no significant effects
same,"effect on serum lactate dehydrogenase, creatine kinase, α-hydroxybutyrate dehydrogenase",[2]; hypoxia exposed male rats,has not been found
same,Creatine Kinase,"[2]; male rats, hypoxia",352.43 ± 138.11 U/L
same,Lactate dehydrogenase,"[2]; male rats, hypoxia",303.86 ± 174.67 U/L
same,α-hydroxybutyrate dehydrogenase,"[2]; male rats, hypoxia",126.29 ± 67.51 U/L
same,effect on liver ATP and glycogen content,"[3]; female rats, after hypoxia exposure and normoxia",no significant effects
same,liver Glycogen,[3]; [7],3.71 ± 0.27 ng/mL
same,liver ATP,[3]; [8],1.39 ± 0.54 µg/mL
same,liver Glycogen,[3]; [8],2.75 ± 1.13 ng/mL
same,effect on liver ATP and glycogen content,[3]; male rats,no significant effects
same,liver Glycogen,"[3]; male rats, hypoxia, 0.11 g/kg",2.14 ± 0.21 ng/mL
same,High density lipoprotein cholesterol,[4]; [7],1.55 ± 0.19 mmol/L
same,Low density lipoprotein cholesterol,[4]; [7],0.17 ± 0.04 mmol/L
same,Total cholesterol,[4]; [7],2.02 ± 0.20 mmol/L
same,effect on low-density lipoprotein cholesterol,"[4]; female rats, normoxia",no significant effects
same,effect on total cholesterol and high-density lipoprotein cholesterol,"[4]; female rats, normoxia",can increase
same,High density lipoprotein cholesterol,[4]; [8],1.67 ± 0.07 mmol/L
same,Low density lipoprotein cholesterol,[4]; [8],0.16 ± 0.02 mmol/L
same,Total cholesterol,[4]; [8],2.14 ± 0.10 mmol/L
same,"effect on total cholesterol, low-density and high-density lipoprotein cholesterol",[4]; hypoxia exposed female rats,increasing
same,"effect on total, high-density and low-density lipoprotein cholesterol",[4]; male rats,no significant effect
same,effect on triglycerides,[4]; male rats exposed to hypoxia,is not found
same,High density lipoprotein cholesterol,"[4]; male rats, hypoxia, 0.11 g/kg",1.39 ± 0.14 mmol/L
same,Low density lipoprotein cholesterol,"[4]; male rats, hypoxia, 0.11 g/kg",0.21 ± 0.05 mmol/L
same,Total cholesterol,"[4]; male rats, hypoxia, 0.11 g/kg",1.88 ± 0.21 mmol/L
same,Triglycerides,"[4]; male rats, hypoxia, 0.11 g/kg",1.05 ± 0.49 mmol/L
same,start time of exhaustion swimming death,"[5]; male mice, 6000 m",died earlier
same,Exhausted swimming survival time,"[5]; male mice, 6000 m, 7 days, acetazolamide positive drug control (0.16 g/kg)",130.64 ± 79.46 min
same,increasing rate of survival time,"[5]; male mice, 6000 m, acetazolamide positive drug control (0.16 g/kg)",2.10%
same,effect on survival time after exhausting swimming / working ability under hypoxia,[5]; mice under low oxygen exposure,no effect
same,effect on serum endothelin-1 and nitric oxide,[6]; female rats after acute hypoxia exposure,no significant effects
same,Endothelin-1,"[6]; female rats, hypoxia",55.66 ± 6.39 ng/mL
same,Nitric oxide,"[6]; female rats, hypoxia",4.96 ± 3.13 µmol/L
same,effect on nitric oxide content,"[6]; female rats, normoxia",no significant effects
same,effect on serum endothelin-1 content,"[6]; female rats, normoxia",can reduce
same,Endothelin-1,"[6]; female rats, normoxia",36.18 ± 2.31 ng/mL
same,Nitric oxide,"[6]; female rats, normoxia",4.08 ± 0.88 µmol/L
same,effect on serum endothelin-1 and nitric oxide,[6]; hypoxia exposed male rats,slight reduction
same,Endothelin-1,"[6]; male rats, hypoxia",42.41 ± 0.7 ng/mL
same,Nitric oxide,"[6]; male rats, hypoxia",3.52 ± 1.25 µmol/L
